Test results as given in ChEMBL document CHEMBL1201862, “PubChem BioAssay data set” (2004).
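Growth conditions: 96-well plates. Treatment: test compound, 48 hours, 5 concentrations. Analysis: linear interpolation between bracketing concentrations; unreached endpoints set to highest concentration. The concentration for 50% growth inhibition is given as GI50.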 The source made the active and inactive calls. Rule as the data show it: active = GI50 up to about 1.1 µM and inactive = higher.

Tests used:
Assay in all cases: NCI anticancer screen, dose series, 48 h
A498 = system: A498
A549 = system: A549
CAKI-1 = system: CAKI-1
CCRF-CEM = system: CCRF-CEM
COLO 205 = system: COLO 205
DLD-1 = system: DLD-1
DMS-114 = system: DMS-114
DMS-273 = system: DMS-273
EKVX = system: EKVX
HCC 2998 = system: HCC 2998
HCT-116 = system: HCT-116
HCT-15 = system: HCT-15
HL-60 = system: HL-60
HOP-18 = system: HOP-18
HOP-62 = system: HOP-62
HOP-92 = system: HOP-92
HT-29 = system: HT-29
IGROV-1 = system: IGROV-1
K562 = system: K562
KM-20L2 = system: KM-20L2
KM12 = system: KM12
LOX IMVI = system: LOX IMVI
M19-MEL = system: M19-MEL
MCF7 = system: MCF7
MOLT-4 = system: MOLT-4
Malme-3M = system: Malme-3M
NCI-H226 = system: NCI-H226
NCI-H23 = system: NCI-H23
NCI-H460 = system: NCI-H460
NCI-H522 = system: NCI-H522
NCI/ADR-RES = system: NCI/ADR-RES
OVCAR-3 = system: OVCAR-3
OVCAR-4 = system: OVCAR-4
OVCAR-5 = system: OVCAR-5
OVCAR-8 = system: OVCAR-8
RPMI-8226 = system: RPMI-8226
RXF 393 = system: RXF 393
SF-268 = system: SF-268
SF-295 = system: SF-295
SF-539 = system: SF-539
SK-MEL-28 = system: SK-MEL-28
SK-MEL-2 = system: SK-MEL-2
SK-MEL-5 = system: SK-MEL-5
SK-OV-3 = system: SK-OV-3
SN12C = system: SN12C
SNB-19 = system: SNB-19
SNB-75 = system: SNB-75
SNB-78 = system: SNB-78
SW-620 = system: SW-620
U-251 = system: U-251
UACC-257 = system: UACC-257
UACC-62 = system: UACC-62
UO-31 = system: UO-31
XF498 = system: XF498
786-0 = system: 786-0
ACHN = system: ACHN
M14 = system: M14
TK-10 = system: TK-10

With `CC(=O)C(=Cc1cn(C)c(=O)n(C)c1=O)C(C)=O` the GI50 (A498) was 101 µM (inactive), the GI50 (A549) was 157 µM (inactive) and the GI50 (CAKI-1) was 83 µM (inactive). For the same molecule, the GI50 (CCRF-CEM) was 49.4 µM (inactive), the GI50 (COLO 205) was 80.9 µM (inactive) and the GI50 (DLD-1) was 94.8 µM (inactive). For the same molecule, the GI50 (DMS-114) was 88.9 µM (inactive), the GI50 (DMS-273) was 98.6 µM (inactive) and the GI50 (EKVX) was 121 µM (inactive). The GI50 (HCC 2998) was 122 µM (inactive), the GI50 (HCT-116) was 87.5 µM (inactive) and the GI50 (HCT-15) was 94 µM. For the same molecule, the GI50 (HL-60) was 84.3 µM (inactive), the GI50 (HOP-18) was 160 µM (inactive) and the GI50 (HOP-62) was 137 µM (inactive). The GI50 (HOP-92) was 2.62 µM (inactive), the GI50 (HT-29) was 113 µM (inactive) and the GI50 (IGROV-1) was 150 µM (inactive). For the same molecule, the GI50 (K562) was 138 µM (inactive), the GI50 (KM-20L2) was 85.7 µM (inactive) and the GI50 (KM12) was 85.1 µM (inactive). The GI50 (LOX IMVI) was 71.1 µM (inactive), the GI50 (M19-MEL) was 109 µM (inactive) and the GI50 (MCF7) was 159 µM (inactive). The GI50 (MOLT-4) was 119 µM (inactive), the GI50 (Malme-3M) was 83 µM (inactive) and the GI50 (NCI-H226) was 116 µM (inactive). The GI50 (NCI-H23) was 69.5 µM (inactive), the GI50 (NCI-H460) was 92.3 µM (inactive) and the GI50 (NCI-H522) was 16.8 µM (inactive). For the same molecule, the GI50 (NCI/ADR-RES) was 93.1 µM (inactive), the GI50 (OVCAR-3) was 116 µM (inactive) and the GI50 (OVCAR-4) was 105 µM (inactive). The GI50 (OVCAR-5) was 97.7 µM (inactive), the GI50 (OVCAR-8) was 126 µM (inactive) and the GI50 (RPMI-8226) was 89.9 µM (inactive). The GI50 (RXF 393) was 60.1 µM (inactive), the GI50 (SF-268) was 148 µM (inactive) and the GI50 (SF-295) was 107 µM (inactive). For the same molecule, the GI50 (SF-539) was 103 µM (inactive), the GI50 (SK-MEL-28) was 100 µM (inactive) and the GI50 (SK-MEL-2) was 106 µM (inactive). For the same molecule, the GI50 (SK-MEL-5) was 86.9 µM (inactive), the GI50 (SK-OV-3) was 99.8 µM (inactive) and the GI50 (SN12C) was 99.1 µM (inactive). For the same molecule, the GI50 (SNB-19) was 125 µM (inactive), the GI50 (SNB-75) was 65 µM (inactive) and the GI50 (SNB-78) was 214 µM (inactive). The GI50 (SW-620) was 106 µM (inactive), the GI50 (U-251) was > 96.8 µM (inactive) and the GI50 (UACC-257) was 85.9 µM (inactive). The GI50 (UACC-62) was 75.9 µM (inactive), the GI50 (UO-31) was 83.8 µM (inactive) and the GI50 (XF498) was 37.8 µM (inactive).
`CCOC(=O)C1Nc2ccccc2[C@H]2OCC[C@@H]12` (stereo partly specified) was tested, and the GI50 (786-0) was > 100 µM (inactive), the GI50 (A498) was > 100 µM (inactive) and the GI50 (A549) was > 100 µM (inactive). The GI50 (ACHN) was > 100 µM (inactive), the GI50 (CAKI-1) was > 100 µM (inactive) and the GI50 (CCRF-CEM) was > 100 µM (inactive). For the same molecule, the GI50 (COLO 205) was > 100 µM (inactive), the GI50 (DLD-1) was > 100 µM (inactive) and the GI50 (DMS-273) was > 100 µM (inactive). For the same molecule, the GI50 (EKVX) was > 100 µM (inactive), the GI50 (HCC 2998) was > 100 µM (inactive) and the GI50 (HCT-116) was > 100 µM (inactive). For the same molecule, the GI50 (HCT-15) was over 100 µM, the GI50 (HL-60) was > 100 µM (inactive) and the GI50 (HOP-18) was > 100 µM (inactive). The GI50 (HOP-62) was > 100 µM (inactive), the GI50 (HT-29) was > 100 µM (inactive) and the GI50 (IGROV-1) was > 100 µM (inactive). The GI50 (K562) was > 100 µM (inactive), the GI50 (KM-20L2) was > 100 µM (inactive) and the GI50 (KM12) was > 100 µM (inactive). The GI50 (LOX IMVI) was > 100 µM (inactive), the GI50 (M14) was > 100 µM (inactive) and the GI50 (M19-MEL) was > 100 µM (inactive). The GI50 (MOLT-4) was > 100 µM (inactive), the GI50 (Malme-3M) was > 100 µM (inactive) and the GI50 (NCI-H226) was > 100 µM (inactive). The GI50 (NCI-H23) was > 100 µM (inactive), the GI50 (NCI-H460) was > 100 µM (inactive) and the GI50 (NCI-H522) was > 100 µM (inactive). The GI50 (OVCAR-3) was > 100 µM (inactive), the GI50 (OVCAR-4) was > 100 µM (inactive) and the GI50 (OVCAR-5) was > 100 µM (inactive). For the same molecule, the GI50 (OVCAR-8) was > 100 µM (inactive), the GI50 (RXF 393) was > 100 µM (inactive) and the GI50 (SF-268) was > 100 µM (inactive). The GI50 (SF-295) was > 100 µM (inactive), the GI50 (SF-539) was > 100 µM (inactive) and the GI50 (SK-MEL-28) was > 100 µM (inactive). For the same molecule, the GI50 (SK-MEL-2) was 0.0596 µM (active), the GI50 (SK-MEL-5) was > 100 µM (inactive) and the GI50 (SK-OV-3) was > 100 µM (inactive). The GI50 (SN12C) was > 100 µM (inactive), the GI50 (SNB-19) was > 100 µM (inactive) and the GI50 (SNB-75) was > 100 µM (inactive). For the same molecule, the GI50 (SNB-78) was > 100 µM (inactive), the GI50 (SW-620) was > 100 µM (inactive) and the GI50 (TK-10) was > 100 µM (inactive). The GI50 (U-251) was > 100 µM (inactive), the GI50 (UACC-257) was > 100 µM (inactive) and the GI50 (UACC-62) was > 100 µM (inactive). The GI50 (XF498) was > 100 µM (inactive).
